Results on 4 compounds are retold here after patent US12128037B2 (priority 2017, dated 2024).

A short description of data set [1]: Gravimetric vapour sorption (GVS), hygroscopicity. In kind it is physicochemical. As to conditions: 25° C. How it is done: Gravimetric vapour sorption (GVS) was used to determine the hygrocopicity of the samples: experiments were performed at 25° C. using a DVS 1 instrument from SMS Ltd to record adsorption-desorption isotherms using different methods, the main features being: a single sorption/desorption cycle from 0 to 80% RH in 10% RH steps with a dm/dt trigger value of 0.002% (dm/dt=change in mass with time—when the balance stability is within this value the next step is automatically started, however, if those conditions are not achieved there is a default maximum time for each step of 6 hours). The sample amount used was 1-3 mg.

Data set [2] is described as follows: Transport across Caco 2 cell monolayer. As to conditions: human, direction ab (apical to basal), 180 min incubation. It counts as in vitro ADME.
Data set [3] can be described thus: Pharmacokinetics of sulfasalazine in rat, oral administration. In kind it is in vivo, male Wistar (Hannover) rats. Particulars: 60 mg/kg. How it is done:
(§1) In accordance with Swedish legislations for preclinical in vivo studies in rodents and following evaluation and approval of the experimental procedures the local ethical committee (M388-12), following acclimatization to the housing conditions for a minimum of 7 days after arrival, male Wistar (Hannover) rats (Taconic, Denmark), average weight 180-200 g; average age 8-10 weeks, were treated with test items (see Table 2); 12-16 h prior to dosing all food except for an amount equivalent to a half day consumption was removed. The test items were administrated using a soft gavage tube (p.o.) or by injecting the test item in the tail vein (i.v). The volume given was 10 mL/kg (p.o.) or 1 mL/kg (i.v.). Before i.v administration the rats were anesthetized using isoflurane. The rats were conscious during sample collection and the blood was taken from the sub-lingual vein. Blood samples were collected from each rat over a period of up to 24 h. At each time point two aliquots of 50 μL each was added to a vial containing 150 μL of sterile water. The samples were mixed immediately and stored in −18° C. until preparation for bioanalysis commenced. All formulations were prepared on the same day that dosing took place. The body weight of the rat was recorded before dosing. The weight of the syringe was recorded before and after administration to allow calculation of the actual amount of test sample delivered. The actual doses were used during the evaluation of the data.
(§2) The plasma levels of sulfasalazine were determined using LCMS/MS in mrm (multiple reaction monitoring) mode.
(§3) Samples and standards were injected by a HTC PAL from CTC analytics into an LC system from Shimadzu consisting of a high pressure gradient system of two LC-10 AD pumps controlled by a SCL-10A controller from Shimadzu. The samples were separated using reverse-phase chromatography with gradient elution at a flow rate of 0.8 mL/min. Mobile phases were A:94.9/5/0.1 water/acetonitrile/formic acid and B:[…] water/acetonitrile/formic acid. Gradient started at 0% B and increased linearly to 100% B in 4 minutes, 100% B was kept for 0.5 minutes and then the system returned to 0% B in 0.1 minutes. The system was equilibrated for 1.4 minutes until the total run time of 6 minutes. The eluent was analyzed by a Quattro Ultima from Micromass equipped with an electrospray ion source. Data was collected and calibrations were calculated by MassLynx 4.0 software. […] The eluent was ionized by negative ion electrospray and the mrm transition from 397 to 197 m/z was monitored.
The diluted blood sample (50 μL blood, 150 μL water) was thawed and mixed. 400 μL of Acetonitrile, to precipitate the protein was added and mixed again. The sample was centrifuged at 5,000 g for 5 minutes. 100 μL of the supernatant was transferred to a 300 μL glass vial and 100 μL of water was added to reduce the acetonitrile concentration.
Positive and negative mode MS/MS was employed for sulfasalazine. The concentration of the standard curve was in the range from 5 nM to 15625 nM. Samples with analyte concentrations above the upper limit of quantification were diluted with matrix to reach within the assay range. A non-compartmental analysis (NCA) was performed using the Phoenix WinNonLin analysis tool.

For data set [4] the following is noted: cited from earlier work.
For data set [5] the following is noted: cited from earlier work. This is another data set of the same source.
The nature of data set [6]: Solubility in de-ionized water (HPLC). As to conditions: 24 °C, thermodynamic from solid.
Experimental: The flow rate was 1.0 mL/min, injection volume 5 μL and detection wavelengths 358 nm (for assay) and 260 nm (for chromatographic purity). Quantitation was performed using external standard methodology. The assay method has been validated with respect to selectivity, repeatability and linearity.
Data set [7] can be described thus: Solubility in water or FaSSIF-V2 medium (Example 8, HPLC). How it is done:
The mobile phase consists of mobile phase (A): 1.13 g sodium dihydrogen phosphate and 2.5 g sodium acetate are dissolved in 1000 mL purified water. The pH is afterwards adjusted with acetic acid (100%) to 4.8. and mobile phase (B): 1 part mobile phase A is mixed with 4 parts of methanol for chromatography. The flow rate was 1.0 mL/min, injection volume 5 μL and detection wavelengths 320 nm (HP DAD series 1100). Run time is 10 min. Quantitation was performed using external standard methodology. The assay method has been validated with respect to selectivity, repeatability and linearity. Samples are prepared with dilute ammonia R3 PhEur.
The saturated solutions were filtrated using centrifuge filters (Nylon, […]) and the clear supernatants were respectively injected either directly or after dilution with dilute ammonia R3 PhEur.

Data set [8] concerns binding of TNF-alpha to its receptor. As to conditions: 125I-TNF-alpha displacement; cited from earlier work.
Details of data set [9]: species or system male Wistar (Hannover) rats. Particulars: rat, in vivo, iv. As to the method: as §1, §2
as §3, with “monitored. […]” for “monitored.”
Positive and negative mode MS/MS was employed for sulfasalazine. […] Samples with analyte concentrations above the upper limit of quantification were diluted with matrix to reach within the assay range. […]

Where [10] appears, read: male, Wistar (Hannover), whole blood.

Molecules are shown by their SMILES. ≈ marks a conversion by molar mass, not a printed value. Where “and” joins values, the source holds several entries; their conditions need not be identical. Equal values may be shown once. Read-outs that look alike come from different tables or passages of the source.

Take `CCNCC.O=C(O)c1cc(N=Nc2ccc(S(=O)(=O)Nc3ccccn3)cc2)ccc1O` [Form A diethylamine salt, Diethylamine 2-hydroxy-5-[2-[4-[(2-pyridinylamino)sulfonyl]phenyl]diazenyl]-benzoate]: the “water vapor uptake (GVS)” value in data set [1] (30% RH) was determined as 0.3 % w/w; in data set [1] (80% RH), 0.5 % w/w.

As to `O=C(O)c1cc(/N=N/c2ccc(S(=O)(=O)Nc3ccccn3)cc2)ccc1O` [sulfasalazine, 2-hydroxy-5-[2-[4-[(2-pyridinylamino)sulfonyl]phenyl]diazenyl]-benzoic acid], the apical-to-basolateral permeability (Papp A→B) at 180 min, 50 μg/mL in data set [2] (50 μg/mL) worked out at 1.39 ×10⁻⁶ cm/s. The compound further had an apparent permeability from apical to basolateral (Papp A→B) at 180 min, 200 μg/mL in [2] (200 μg/mL) of 1.16 ×10⁻⁶ cm/s. The F in data set [3] (male, Wistar (Hannover), in vivo) is recorded as 2.5%. Also, the peak concentration (Cmax) in [3] (setting [10]) came out at 700 ± 110 nM. The Tmax in [3] (setting [10]) turned out to be 0.72 ± 0.57 h. Also, the AUC in data set [3] (male, Wistar (Hannover), whole blood, p.o., read-out: AUC0.1, 5 h obs) turned out to be 0.81 ± 0.13 µM·h; in data set [3] (male, Wistar (Hannover), whole blood, p.o., read-out: AUCall), 2.81 ± 0.41 µM·h. For the same compound, the half-life was 2 ± 0.5 h in data set [3] (male, Wistar (Hannover), whole blood, p.o.) and “approximately 7.6±3.6 hours” in data set [4] (intravenously administered). For the same compound, the “time of median peak concentration” value in data set [4] (man, oral) was 6 h. Besides, in [5] (USP classification), the “solubility, United States Pharmacopoeia class practically insoluble” value is less than 100 µg/mL. Moreover, in [5] (de-ionized water at 24° C., literature value), the “solubility in de-ionized water” value is 30 µg/mL and 31 µg/mL. Besides, the solubility in water result in [5] (water) was “less than 5 mg/100 ml”. For the same compound, the Solubility in [6] stood at 60 µg/mL (≈ 151 µM); in data set [7] (FaSSIF-V2, room temperature (20-25° C.), saturated solution), 780 µg/mL (≈ 1960 µM). The same compound yielded a solubility at 24 h in [7] (water, pH 5.9, water, thermodynamic from solid) of 60 µg/mL (≈ 151 µM). Also, the “binding of TNF-alpha to its receptor” value in [8] is listed as “inhibits”.

Regarding `Nc1ccc(S(=O)(=O)Nc2ccccn2)cc1` [sulfapyridine], the systemic bioavailability result in data set [4] (metabolite formed from non-absorbed sulfasalazine by gut flora) is “about 60%”.

`CNCC(O)C(O)C(O)C(O)CO.O=C(O)c1cc(N=Nc2ccc(S(=O)(=O)Nc3ccccn3)cc2)ccc1O` [Form A meglumine salt] displayed a F in data set [3] (in vivo) of 3.8%. Moreover, the T1/2 in [3] (in vivo) amounted to 1.9 ± 0.5 h; in [9] (1 mg/kg), 1.2 h; in data set [9] (5 mg/kg), 1.3 h. The AUCinf obs in [9] (1 mg/kg) is on record as 1,661 ± 191 h*nM; in data set [9] (5 mg/kg), 11,889 ± 735 h*nM. The “water vapor uptake (GVS)” value in data set [1] (30% RH, listed as Example 1) was less than 0.4 % w/w; in [1] (30% RH, listed as Example 2), 0.4 % w/w; in data set [1] (80% RH, listed as Example 1) it was less than 0.9 % w/w; in data set [1] (80% RH, listed as Example 2), 1.1 % w/w. Besides, in data set [7] (pH 6.8), the Solubility was 60300 µg/mL.

A word on the Papp A→B: it is the apparent permeability from the apical to the basolateral side of a cell layer. Higher therefore signals ready permeation. As usually defined, the Cmax is the maximum level reached in the sampled fluid or tissue. Usually Tmax stands for the time at which the peak concentration occurs. What is called half-life is how long it takes for the measured level to halve. For orientation: Solubility means how much of the substance goes into solution per volume. A high value points to a readily soluble substance. As usually defined, the solubility is how much of the substance goes into solution per volume.
